In patent publication US9056888B2 (priority 2011, dated 2015):
Entries after “also recorded” stand apart in the source; their conditions may differ. Where two headings read alike, the source gives them in different places.

Key:
[1] = tested on: HIV-1; experiment: Infection inhibition assay, MAGIC-5B indicator cells; conditions: Table 1
Method: The evaluation of HIV-1 inhibition was carried out using MAGIC-5B indicator cells, which stably express the β-galactosidase reporter gene cloned downstream of the HIV-1 LTR promoter. Cells were plated at 8×10^4 cells per well, in 24-well plates and exposed to HIV-1 (x ng p24). Forty-eight hours post-infection, viral infectivity was monitored by quantification of o-nitrophenyl β-D-galactopyranoside hydrolysis from cell lysates (kit). β-galactosidase activity was normalized according to total protein content in the cell lysate. Control wells containing virus and cells only (no drug) and cells only (no virus or drug) were also prepared.

[2] = Cytotoxicity, MTT assay (Table 1); type: cell-based; conditions: mean
Method: The cellular toxicity of the different compounds was evaluated using the MTT assays. […] The selectivity index (SI) was defined as the ratio CC50: IC50 (Table 1).

[3] = tested on: HIV-1 VLP assembly (Pr55Gag); experiment: microbe, parasite or virus in culture; type: cell-based; conditions: for SI (ratio CC50:IC50): Table 2
Method: Aliquots of Sf9 cells (10^6) were infected with two recombinant baculoviruses at equal multiplicity of infection (MOI of 10 PFU/cell, each). One expressed the HIV-1 Gag precursor (AcMNPV-Pr55Gag or control, p6-deleted AcMNPV-GagΔp6), the other the control Vpr protein (AcMNPV-Vpr) or the LucVpr fusion (AcMNPV-LucVpr). […] To avoid any interference with a possible effect of DMSO, DMSO was kept constant in volume in the different samples. […] Cells were harvested at 48 h pi, and extracellular VLP released in the culture medium were quantitated using luciferase assay. Membrane-enveloped VLP were pelleted and resuspended in lysis KDT buffer (KDT: 0.1M potassium phosphate buffer, pH 7.8, 1 mM DTT, containing 0.2% Triton X100) for 30 min at 37° C. with vortexing every 10 min. Luciferase activity associated with VLP was measured as previously described [10], using a Lumat LB-9501 luminometer (Berthold Technologies, Bad Wildbad, Germany). […] To compensate for eventual negative effects of drugs on LucVpr expression, the luciferase activity was measured in the corresponding cell lysates, obtained after lysis of the pelleted cells with KDT buffer. The results were expressed as relative light units (RLU) per μg protein. The values of the ratio of VLP-associated to intracellular luciferase activity were plotted versus the inhibitor concentration.
Cell culture medium was then harvested at 48 h pi, subjected to the 2-step ultracentrifugation analysis, and each gradient fraction probed for Gag polyprotein and luciferase activity, as above. […] The gradient fractions corresponding to the peak of luciferase activity were pooled, and the VLP contained in these fractions were pelleted, lysed and assayed for luciferase content.
Drug treatment was maintained for a further 24 h, and VLP released in the cell culture medium were pelleted through a sucrose cushion [8]. The amounts of extracellular VLP recovered in the 48 h-pellets obtained in the presence of the different inhibitors were determined using the luciferase assays. After normalization to the luciferase activity determined in the corresponding cell lysates, the values of the ratio of VLP-incorporated to cell-associated luciferase activity were plotted versus the drug concentrations.

[4] = Cytotoxicity, MTT assay (Table 2); type: cell-based; conditions: for CC50: MTT assay, mean
Method: The cellular toxicity of the different compounds was evaluated using the MTT assays. […] The selectivity index (SI) was defined as the CC50 to IC50 ratio.

[5] = tested on: CA-SP1 cleavage; experiment: HIV-1 maturation inhibition assay, p25 (CA-SP1) to p24 (CA) processing in virion lysate; type: cell-based; conditions: Western blot (FIG. 2)
Method: Two days after transfection, virus-containing supernatants were concentrated by ultracentrifugation through a layer of 20% sucrose at 25 000 rpm for 2 h30. Viral pellets were then resuspended in RIPA lysis buffer [10 mM Tris-HCl (pH 7.4), 1 mM EDTA, 100 mM NaCl, 1% Triton X-100, 0.1% SDS, 0.25% sodium deoxycholate, 0.2% phenylmethylsulfonyl fluoride (PMSF)]. Viral proteins were loaded on a 12.5% SDS-PAGE gel.
To further elucidate the mechanism of action, viral samples used for infection assays were subjected to biochemical characterization (FIG. 2).

[6] = tested on: HIV-1 virion morphology; experiment: Thin-section electron microscopy of virions from pNL4-3 transfected 293T cells; type: cell-based; conditions: pNL4-3, 5 μg/ml (FIG. 3)
Method: Two days after transfection, 293T cells were processed for thin-layer electron microscopy as follows: cells were fixed in situ with 2.5% glutaraldehyde in cacodylate buffer (pH 7.4) for 60 min at 4° C. Cells were then post-fixed with 2% osmium tetroxide, washed in cacodylate buffer containing 0.5% tanic acid, and embedded in epon (Embed-812, Electron Microscopy Sciences Inc.). Sections were counterstained with uranyl acetate and lead citrate and examined with an Hitachi H7100 transmission electron microscope.
In the absence of compounds, cells transfected with pNL4-3 produced virus particles with the classical mature morphology characterized by the presence of condensed, conical cores (FIG. 3A).

[7] = tested on: VLP assembly and budding; experiment: Electron microscopy of AcMNPV-Gag-infected Sf9 cells; type: cell-based, HIV-1; conditions: 5 and 10 μg/ml for 24 h at 24 h pi
Method: Baculovirus-infected Sf9 cells were harvested at 48 h pi, pelleted, fixed with 2.5% glutaraldehyde in 0.1 M phosphate buffer, pH 7.5, post-fixed with osmium tetroxide (2% in H2O) and treated with 0.5% tannic acid solution in H2O. The specimens were dehydrated and embedded in Epon (Epon-812; Fulham, Latham, N.Y.). Ultrathin sections were stained with 2.6% alkaline lead citrate and 0.5% uranyl acetate in 50% ethanol, and post-stained with 0.5% uranyl acetate solution in H2O [8,9]. Grids were examined under a Jeol JEM-1400 electron microscope, equipped with an ORIUS™ digitalized camera (Gatan France, 78113-Grandchamp). For statistical EM analyses, a minimum of 30 grid squares containing 10 to 20 cell sections each were examined for counting VLP budding at the cell surface, or budding in intracellular vesicular compartment.
By contrast, control, untreated AcMNPV-Gag-infected Sf9 cells were decorated with VLP budding in abundance from the plasma membrane.

[8] = target: T1, Pr55Gag (Human immunodeficiency virus type 1 group M subtype B, UniProt P03348); experiment: Chemical cross-linking of intracellular Pr55Gag with BS3; type: cell-based, HIV-1; conditions: Sf9 cells, 10 μg/ml
T1 construct: AcMNPV-Pr55Gag expressed the full-length wild type (WT) Gag polyprotein (Pr55Gag); expressed in transfected cells; host or cells: Spodoptera frugiperda Sf9 cells infected with recombinant baculovirus AcMNPV-Pr55Gag
Method: Aliquots of recombinant baculovirus-infected Sf9 cells (5×10^5 cells) untreated or treated with 16 at 10 ug/ml for 24 h at 24 h pi were centrifuged at low speed, resuspended in 200 μl of PBS containing the cross-linker bis(sulfosuccinimidyl)suberate (BS3; Pierce Biotechnology, Rockford, Ill.) at increasing molarities, ranging from 0 to 50 mM [12], and incubated in this buffer for 30 min at room temperature (RT). Cell samples were then centrifuged, resuspended and lysed in 200 μl 0.015 M NaCl, 0.5 mM phosphate buffer pH 7.3 containing BS3 at the same molarites as in the original mixtures, and further incubated for 30 min at RT. Cell lysates were mixed with 30 μl 6 times concentrated (6×) SDS-sample buffer without β-mercaptoethanol, heated to 100° C. for 1 min, and Gag proteins analyzed by SDS-PAGE and immunoblotting. […]
To further analyse the mechanism of the effect of 16 on Gag polyprotein assembly, untreated and 16-treated (10 μg/ml), Pr55Gag-expressing Sf9 cells were incubated with increasing concentrations of the chemical cross-linker BS3 at 48 h pi for 30 min at room temperature, then lysed in hypotonic medium in the presence of BS3 used in the same range of concentrations. The oligomeric status of the Gag proteins was assessed by SDS-PAGE and Western blot analysis, using anti-Gag antibody, peroxidase-labeled complementary antibody and enhanced chemiluminescence (ECL). […]

[9] = tested on: VLP assembly and budding; conditions: 10 μg/ml (17 μM), previous study [8]; cited from earlier work
[10] = tested on: HIV-1 VLP; conditions: read-out: IC50 previously determined using immuno-radiochemical assay of VLP; reference [8]; cited from earlier work
[11] = Human immunodeficiency virus 1, read-out: IC50, inhibition of HIV-1 VLP assembly, Sf9 cells, mean
[12] = Human immunodeficiency virus 1, read-out: IC50, inhibition of HIV-1 VLP assembly, Sf9 cells, mean ± SEM, n = 4

| Structure (SMILES) | SI (CC50/IC50 ratio) [1] | CC50 [2] [µM] | SI (ratio CC50:IC50) [3] | CC50 [4] [µM] | inhibition of conversion of uncleaved p25 (CA-SP1) to mature p24 (CA) [5] | virus morphology / virion maturation by EM [6] | also measured |
| --- | --- | --- | --- | --- | --- | --- | --- |
| C=C(C)[C@@H]1CC[C@]2(C(=O)NCC(=O)O)CC[C@]3(C)[C@H](CC[C@@H]4[C@@]5(C)CC[C@H](OC(=O)CC(C)(C)C(=O)O)C(C)(C)[C@@H]5CC[C@]43C)[C@@H]12 [Compound 12, N-[3β-(3-carboxy-3-methylbutanoyloxy)-lup-20,29-en-28-oyl]-glycine] | 309.37 | 49.5 | 5.3 | 31.1 | inhibit the CA-SP1 cleavage; also recorded: accumulation of p25 is observed | lacked conical cores | IC50 [3, 11]: 5.9 µM; IC50 [3, 12]: 3.8 ± 1.6 µg/mL; effect on VLP assembly and budding by EM [7]: net inhibitory effect on VLP assembly and budding |
| C=C(C)[C@@H]1CC[C@]2(C(=O)O)CC[C@]3(C)[C@H](CC[C@@H]4[C@@]5(C)CC[C@H](O)C(C)(C)[C@@H]5CC[C@]43C)[C@@H]12 [BA, betulinic acid, reference compound] | 0.85 | 4.52 | 1.1 | 43.8 |  |  |  |
| C=C(C)[C@@H]1CC[C@]2(C(=O)NCCN)CC[C@]3(C)[C@H](CC[C@@H]4[C@@]5(C)CC[C@H](OC(=O)CC(C)(C)C(=O)O)C(C)(C)[C@@H]5CC[C@]43C)[C@@H]12 [Compound 16, 4-({28-[(2-aminoethyl)amino]-28-oxolup-20,29-en-3β-yl}oxy)-2,2-dimethyl-4-oxobutanoic acid] |  | 33.9 |  | 120 | inhibit the CA-SP1 cleavage; also recorded: accumulation of p25 is observed | lacked conical cores | Gag oligomerization status after BS3 cross-linking [8]: favored the occurrence and/or the stability and persistence of Gag trimers |
| C=C(C)[C@@H]1CC[C@]2(C(=O)NCC(=O)O)CC[C@]3(C)C(CCC4[C@@]5(C)CC[C@H](OC(=O)CC(C)(C)C(=O)O)C(C)(C)C5CC[C@]43C)C12 (stereo partly drawn) [Compound 12, N-[3β-(3-carboxy-3-methylbutanoyloxy)-lup-20,29-en-28-oyl]-glycine] |  |  |  |  |  |  | IC50 ([3]; Sf9 cells, mean, read-out: IC50, inhibition of HIV-1 VLP assembly): 5.9 µM |
| C=C(C)[C@@H]1CC[C@]2(C(=O)NC(CCCCNC(=O)OC(C)(C)C)C(=O)O)CC[C@]3(C)[C@H](CC[C@@H]4[C@@]5(C)CC[C@H](OC(=O)CC(C)(C)C(=O)O)C(C)(C)[C@@H]5CC[C@]43C)[C@@H]12 (stereo partly drawn) [Compound 15, N^2—[O^3-(3-carboxy-3-methylbutyryl)betulinyl]-N^6-Boc-L-lysine] | 199.41 | 33 | 13.0 | 24.7 | inhibit the CA-SP1 cleavage; also recorded: accumulation of p25 is observed | lacked conical cores | IC50 [3, 11]: 1.9 µM; IC50 [3, 12]: 1 to 2 µg/mL; IC50, inhibition of HIV-1 VLP assembly ([3]; Sf9 cells, mean ± SEM, n = 4): 1.6 ± 0.5 µg/mL; effect on VLP assembly and budding by EM [7]: net inhibitory effect on VLP assembly and budding |
| C=C(C)[C@@H]1CC[C@]2(C(=O)NCCN)CC[C@]3(C)C(CCC4[C@@]5(C)CC[C@H](OC(=O)CC(C)(C)C(=O)O)C(C)(C)C5CC[C@]43C)C12 (stereo partly drawn) [Compound 16, 4-({28-[(2-aminoethyl)amino]-28-oxolup-20,29-en-3β-yl}oxy)-2,2-dimethyl-4-oxobutanoic acid] |  |  |  |  |  |  | level of cytotoxicity compared to the other drugs [4]: lowest level of cytotoxicity |
| C=C(C)[C@@H]1CC[C@]2(C(=O)O)CC[C@]3(C)[C@H](CC[C@@H]4[C@@]5(C)CC[C@H](OC(=O)CC(C)(C)C(=O)O)C(C)(C)[C@@H]5CC[C@]43C)[C@@H]12 [DSB, 3-O-(3′,3′-dimethylsuccinyl)-betulinic acid, reference compound] |  |  |  |  |  | lacked conical cores | IC50 ([3]; Human immunodeficiency virus 1, read-out: IC50, VLP formation): 3.8 to 4.2 µM; IC50 ([3]; Human immunodeficiency virus 1, read-out: IC50, inhibition of HIV-1 VLP assembly): 3 ± 1 µg/mL; IC50 ([3]; Human immunodeficiency virus 1, read-out: concentration for 50% inhibition of VLP formation): 2.2 to 2.5 µg/mL; inhibition of conversion of uncleaved p25 (CA-SP1) to mature p24 (CA) ([5]; listed as 2): inhibit the CA-SP1 cleavage; also recorded: accumulation of p25 is observed; effect on VLP budding and egress [9]: totally abolished VLP budding and egress; IC50 [10]: 8 to 10 µM |
| C=C(C)[C@@H]1CC[C@]2(C(=O)NC(CCCCN)C(=O)O)CC[C@]3(C)[C@H](CC[C@@H]4[C@@]5(C)CC[C@H](OC(=O)CC(C)(C)C(=O)O)C(C)(C)[C@@H]5CC[C@]43C)[C@@H]12 (stereo partly drawn) [Compound 17, N^2-[3β-(3-carboxy-3-methylbutanoyloxy)lup-20,29-en-28-oyl]-L-lysine] |  |  |  |  |  |  | VLP / particle assembly inhibition (in words) ([3]; FIG. 6): resembled that of 12 |
